Results published in ChEMBL document CHEMBL4340562, “Discovery of novel pyridazine derivatives as glucose transporter type 4 (GLUT4) translocation activators” (Bioorg Med Chem Lett, 2019).
Active and inactive are the calls of the source. The calls are words filed in the database; no cut-off is given here.

How the values were obtained:
[1] = Stability of the compound in mouse liver microsomes assessed as parent compound remaining after 30 mins relative to control; assay type: ADME, Microsome; settings: read-out: Stability
[2] = 1-octanol/PBS distribution co-efficient, log D of the compound at pH 7.4; assay type: physicochemical
[3] = target: T1, Solute carrier family 2, facilitated glucose transporter member 4 (Rattus norvegicus) (UniProt P19357); assay: Induction of GLUT4 translocation in rat L6-GLUT4myc differentiated myotube cells at 3 uM after 20 mins by chemiluminescent method relative to 30 uM 2-(4-(4-(2-methoxyphenyl)-6,7-dihydro-5H-cyclopenta[d]pyridazin-1-ylamino)phenyl)acetamide
T1 sequence (whole entry): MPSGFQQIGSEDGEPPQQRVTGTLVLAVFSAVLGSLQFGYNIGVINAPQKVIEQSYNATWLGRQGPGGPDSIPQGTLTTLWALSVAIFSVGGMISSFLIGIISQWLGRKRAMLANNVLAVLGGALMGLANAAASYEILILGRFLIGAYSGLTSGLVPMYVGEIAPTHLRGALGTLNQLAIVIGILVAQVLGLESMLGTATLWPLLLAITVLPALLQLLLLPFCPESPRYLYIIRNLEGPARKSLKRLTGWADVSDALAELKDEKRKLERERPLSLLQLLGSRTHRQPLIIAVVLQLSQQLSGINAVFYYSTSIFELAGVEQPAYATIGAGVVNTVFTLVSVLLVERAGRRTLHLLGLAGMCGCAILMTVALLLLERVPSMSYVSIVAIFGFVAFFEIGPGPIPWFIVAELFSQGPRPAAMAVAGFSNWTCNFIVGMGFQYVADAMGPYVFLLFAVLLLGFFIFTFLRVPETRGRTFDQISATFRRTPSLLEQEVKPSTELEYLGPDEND

[4] = target: T1, Solute carrier family 2, facilitated glucose transporter member 4 (Rattus norvegicus); assay: Induction of GLUT4 translocation in rat L6-GLUT4myc differentiated myotube cells at 30 uM after 20 mins by chemiluminescent method relative to 30 uM 2-(4-(4-phenylphthalazin-1-ylamino)phenyl)acetamide
[5] = target: T1, Solute carrier family 2, facilitated glucose transporter member 4 (Rattus norvegicus); assay: Potency index, ratio of EC50 for 2-(4-(4-(2-methoxyphenyl)-6,7-dihydro-5H-cyclopenta[d]pyridazin-1-ylamino)phenyl)acetamide EC50 to EC50 for test compound for GLUT4 translocation activity in L6-GLUT4myc differentiated myotube cells
Mus musculus [6] = assay: Antidiabetic activity in db/db mouse assessed as reduction in fasting plasma glucose AUC at 30 mg/kg, po measured up to 4 hrs; assay type: functional, organism-based; set-up: dose 30 mg/kg, time < 4 hr
Mus musculus [7] = assay: Antidiabetic activity in db/db mouse assessed as reduction in fasting plasma glucose level at 3 mg/kg, po measured up to 4 hrs; assay type: functional
[8] = Cmax in db/db mouse plasma at 10 mg/kg, po measured up to 4 hrs; assay type: ADME, organism-based; set-up: dose 10 mg/kg, route oral
[9] = Cmax in db/db mouse plasma at 3 to 30 mg/kg, po measured up to 4 hrs; assay type: ADME, organism-based; settings: in vivo
[10] = AUC (0 to 4 hrs) in db/db mouse plasma at 30 mg/kg, po measured up to 4 hrs; assay type: ADME, organism-based; set-up: time < 4 hr, dose 30 mg/kg, route oral
[11] = Cmax in db/db mouse plasma at 3 mg/kg, po measured up to 4 hrs; assay type: ADME, organism-based; set-up: dose 3 mg/kg, route oral
[12] = AUC (0 to 4 hrs) in db/db mouse plasma at 3 to 30 mg/kg, po measured up to 4 hrs; assay type: ADME, organism-based; settings: in vivo
Mus musculus [13] = assay: Antidiabetic activity in db/db mouse assessed as reduction in fasting plasma glucose AUC at 3 mg/kg, po measured up to 4 hrs; assay type: functional, organism-based; set-up: dose 3 mg/kg, time < 4 hr
Mus musculus [14] = assay: Antidiabetic activity in db/db mouse assessed as reduction in fasting plasma glucose level at 3 to 30 mg/kg, po measured up to 4 hrs; assay type: functional, organism-based
Mus musculus [15] = assay: Antidiabetic activity in db/db mouse assessed as reduction in fasting plasma glucose AUC at 10 mg/kg, po measured up to 4 hrs; assay type: functional, organism-based; set-up: dose 10 mg/kg, time < 4 hr
Mus musculus [16] = assay: Antidiabetic activity in db/db mouse assessed as reduction in fasting plasma glucose level at 10 mg/kg, po measured up to 4 hrs; assay type: functional
[17] = AUC (0 to 4 hrs) in db/db mouse plasma at 3 mg/kg, po measured up to 4 hrs; assay type: ADME, organism-based; set-up: dose 3 mg/kg, time < 4 hr, route oral
Mus musculus [18] = assay: Antidiabetic activity in db/db mouse assessed as reduction in fasting plasma glucose level at 30 mg/kg, po measured up to 4 hrs; assay type: functional
[19] = AUC (0 to 4 hrs) in db/db mouse plasma at 10 mg/kg, po measured up to 4 hrs; assay type: ADME, organism-based; set-up: dose 10 mg/kg, time < 4 hr, route oral
[20] = Cmax in db/db mouse plasma at 30 mg/kg, po measured up to 4 hrs; assay type: ADME, organism-based; set-up: dose 30 mg/kg, route oral
[21] = target: T1, Solute carrier family 2, facilitated glucose transporter member 4 (Rattus norvegicus); assay: Induction of GLUT4 translocation in rat L6-GLUT4myc differentiated myotube cells at 3 uM after 20 mins by chemiluminescent method relative to 2-(4-(4-(2-methoxyphenyl)phthalazin-1-ylamino)phenyl)acetamide

CC(C)(C)OC(=O)NCCOCCOc1ccccc1-c1nnc(Nc2ccc(CC(N)=O)cc2F)c2ccsc12
remaining at 0.5 h [1]: 15% | logD [2]: 3.2

COc1ccccc1-c1nnc(Nc2ccc(CC(N)=O)cc2C(F)(F)F)c2c1CCC2
fold change (FC) [3]: 0.12

COc1ccccc1-c1nnc(Nc2ccc(CC(N)=O)cc2Cl)c2c1CCC2
fold change (FC) [3]: 0.45

COc1ccccc1-c1nnc(Nc2ccc(CC(N)=O)cc2)c(C)c1C
fold change (FC) [4]: 3.7

COc1ccccc1-c1nnc(Nc2ccc(CC(N)=O)c(F)c2)c2c1CCC2
fold change (FC) [3]: 0.56

COc1ccccc1-c1nnc(Nc2ccc(CC(N)=O)cc2F)c2ccsc12
Ratio EC50 [5]: 7 | remaining at 0.5 h [1]: 92% | logD [2]: 2.6

COc1ccccc1-c1nnc(Nc2ccc(CCC(N)=O)cc2)c2c1CCC2
fold change (FC) [3]: inactive

COc1ccccc1-c1nnc(Nc2ccc(CC(N)=O)cc2C)c2c1CCC2
fold change (FC) [3]: 0.52

COc1ccccc1-c1nnc(Nc2ccc(C(N)=O)cc2)c2c1CCC2
fold change (FC) [3]: 0.1

Cc1cccc(-c2nnc(Nc3ccc(CC(N)=O)cc3)c3ccccc23)c1
fold change (FC) [4]: 1.3

CNC(=O)Cc1ccc(Nc2nnc(-c3ccccc3OC)c3c2CCC3)cc1
fold change (FC) [3]: 0.08

COc1ccccc1-c1nnc(Nc2ccc(CC(N)=O)cc2O)c2c1CCC2
fold change (FC) [3]: 0.09

NC(=O)Cc1ccc(Nc2nnc(-c3ccccc3OCC3COCCO3)c3sccc23)c(F)c1 (stereo unspecified)
remaining at 0.5 h [1]: > 100% | logD [2]: 1.8

COCCOc1ccccc1-c1nnc(Nc2ccc(CC(N)=O)cc2F)c2ccsc12
AUC (Mus musculus [6]): 1210 mg/dl.hr | Emax (Mus musculus [7]): 220 mg/dL | remaining at 0.5 h [1]: 66% | Cmax [8]: 4 µM | Cmax [9]: Dose-dependent effect | AUC(0-t) at 4 h [10]: 12.6 µM·h | Cmax [11]: 3.38 µM | AUC [12]: Dose-dependent effect | AUC (Mus musculus [13]): 644 mg/dl.hr | Activity (Mus musculus [14]): Dose-dependent effect | logD [2]: 2.1 | AUC (Mus musculus [15]): 1160 mg/dl.hr | Emax (Mus musculus [16]): 393 mg/dL | AUC(0-t) at 4 h [17]: 9.01 µM·h | Emax (Mus musculus [18]): 435 mg/dL | AUC(0-t) at 4 h [19]: 10.6 µM·h | Cmax [20]: 4.38 µM

COc1ccccc1-c1nnc(Nc2ccc(CC(N)=O)cc2)c2occc12
fold change (FC) [3]: 0.46

NC(=O)Cc1ccc(Nc2nnc(-c3ccccc3OCc3cscn3)c3sccc23)c(F)c1
remaining at 0.5 h [1]: 79% | logD [2]: 2.6

Cc1ccccc1-c1nnc(Nc2ccc(CC(N)=O)cc2)c2ccccc12
fold change (FC) [4]: 1.6

COc1ccccc1-c1nnc(Nc2ccc(CC(N)=O)cc2)c2sccc12
fold change (FC) [3]: 0.67

NC(=O)Cc1ccc(Nc2nnc(-c3ccccc3OCc3ccccn3)c3sccc23)c(F)c1
remaining at 0.5 h [1]: 19% | logD [2]: 2.9

COc1ccccc1-c1nnc(Nc2ccc(CC(N)=O)cc2)c2c1CCC2
fold change (FC) [4]: 4.7 | remaining at 0.5 h [1]: 90% | fold change (FC) [21]: 2 | logD [2]: 2.3

COc1ccccc1-c1nnc(Nc2ccc(CC(=O)N(C)C)cc2)c2c1CCC2
fold change (FC) [3]: 0.09

COc1ccccc1-c1nnc(Nc2ccc(CC(N)=O)c(C)c2)c2c1CCC2
fold change (FC) [3]: 0.36

COc1ccccc1-c1nnc(Nc2ccc(CC(N)=O)cc2)c2c1CCCC2
fold change (FC) [4]: 0.9

CC(C)(C)NC(=O)NCCOCCOc1ccccc1-c1nnc(Nc2ccc(CC(N)=O)cc2F)c2ccsc12
remaining at 0.5 h [1]: 2% | logD [2]: 2.9

COc1cccc(-c2nnc(Nc3ccc(CC(N)=O)cc3)c3ccccc23)c1
fold change (FC) [4]: 1

COc1ccccc1-c1nnc(Nc2cccc(CC(N)=O)c2)c2c1CCC2
fold change (FC) [3]: 0.04

CCc1ccccc1-c1nnc(Nc2ccc(CC(N)=O)cc2)c2ccccc12
fold change (FC) [4]: 1.7

COc1ccccc1-c1nnc(Nc2ccc(CC(N)=O)cc2)c2ccsc12
fold change (FC) [3]: 0.97

COc1ccccc1-c1nnc(Nc2ccc(CC(N)=O)cc2F)c2c1CCC2
fold change (FC) [3]: 0.85

COc1ccc(-c2nnc(Nc3ccc(CC(N)=O)cc3)c3ccccc23)cc1
fold change (FC) [4]: inactive

COc1ccccc1-c1nnc(Nc2ccc(CC(N)=O)cc2)c2oc(C)cc12
fold change (FC) [3]: inactive

COCCOCCOc1ccccc1-c1nnc(Nc2ccc(CC(N)=O)cc2F)c2ccsc12
remaining at 0.5 h [1]: 82% | logD [2]: 1.8

COc1ccccc1-c1nnc(Nc2ccc(C3(C(N)=O)CC3)cc2)c2c1CCC2
fold change (FC) [3]: 0.37

COc1ccccc1-c1nnc(Nc2ccc(CC(N)=O)cc2)c2ccccc12
fold change (FC) [4]: 2.7

COc1ccccc1-c1nnc(Nc2ccc(CS(N)(=O)=O)cc2)c2c1CCC2
fold change (FC) [3]: 0.09

COc1cc(CC(N)=O)ccc1Nc1nnc(-c2ccccc2OC)c2c1CCC2
fold change (FC) [3]: 0.13

CCc1c(Nc2ccc(CC(N)=O)cc2)nnc(-c2ccccc2OC)c1CC
fold change (FC) [4]: inactive

COc1ccccc1-c1nnc(Nc2ccc(CC(N)=O)cc2)c2ccoc12
fold change (FC) [3]: 0.33

COc1ccccc1-c1nnc(Nc2ccc(C(C)(C)C(N)=O)cc2)c2c1CCC2
fold change (FC) [3]: 0.3
